Data set [1] relates to PDE4. To be noted: yes/no; cited from earlier work.
The target in data set [2] is T1, HSPDE4A4-ΔLR2-EGFP (Homo sapiens, UniProt P27815, DEL313-320).
T1 construct: expressed in transfected cells
Briefly: Spot formation in CHO cells transfected with HSPDE4A4-ΔLR2-EGFP. In kind it is cell-based. To be noted: 30 to 0.01 μM. The procedure: Stably transfected (non-clonal) cells are allowed to adhere to chambered coverglasses in HAM's F12 medium containing 10% FBS.
(§1) The cells are then fixed with 4% formaldehyde buffer (pH7) for 1 hour, washed with PBS and stained with 1 μM Hoechst 33258 in PBS for 10 minutes at 25° C., then washed twice in PBS. Automated images are collected and analysed for the number of spots per cell as described in Example 2.

Data set [3] addresses T2, HSPDE4A4-EGFP (Homo sapiens, UniProt P27815).
T2 construct: expressed in transfected cells
Briefly: Dispersal of preformed Rolipram-induced spots, HSPDE4A4-EGFP CHO cells. Type of data set: cell-based. The procedure:
For the microscopic assessment of spot dispersal, stably transfected (non-clonal) cells transfected with the HSPDE4A4-EGFP probe are allowed to adhere to chambered coverglasses in HAM's F12 medium containing 10% FBS. […] Chambered coverglasses are then transferred to a Zeiss 135 inverted microscope for time lapse imaging as described in Example 2, above. At a given point after starting an experiment, a mixture of IBMX and forskolin is added to give final concentrations of 1 mM and 50 μM, respectively. Images are captured at regular intervals to form a time lapse sequence of the response, also as described in Example 2.
The plate is then run in the FLIPR system at 37° C., with addition of IBMX and forskolin to all wells at final concentrations of 500 μM and 50 μM respectively after the first minute. The experiment is continued for a further 45 minutes, readings being taken at intervals of 1 minute.
Non-clonal CHO cells stably transfected with the HSPDE4A4-EGFP probe are allowed to adhere to chambered coverglasses in HAM's F12 medium containing 10% FBS and to grow for 24 hours.
Clonal CHO cells stably transfected with the HSPDE4A4-EGFP probe are allowed to adhere to chambered coverglasses in HAM's F12 medium containing 10% FBS and to grow for 5 days without change of medium, which by this time is serum-depleted.
Individual wells are then treated with either 50 μM forskolin plus 500 μM IBMX or 200 nM PMA plus 2 μM ionomycin.

Data set [4] has as its target T2, HSPDE4A4-EGFP. Kind of data set: Spot formation in CHO cells transfected with HSPDE4A4-EGFP. Type of data set: cell-based. As for the experimental part:
Chinese hamster ovary cells (CHO), are transfected with the plasmids described in Example 1 above using the transfection agent FuGENE™ 6 (Boehringer Mannheim Corp, USA) according to the method recommended by the suppliers. Stable transfectants are selected using 1 mg/ml G418 sulphate (Calbiochem) in the growth medium (HAM's F12 nutrient mix with Glutamax-1, 10% foetal bovine serum (FBS), 100 μg penicillin-streptomycin mixture ml^−1 (GibcoBRL, supplied by Life Technologies, Denmark). Cell are cultured at 37° C. in 100% humidity and conditions of normal atmospheric gases supplemented with 5% CO2.
For fluorescence microscopy, cells are allowed to adhere to Lab-Tek chambered coverglasses (Nalge Nunc International, Naperville USA) for at least 24 hours and are then cultured to about 80% confluence. Cells can also be grown in plastic 96-well plates (Polyfiltronics Packard 96-View Plate or Costar Black Plate, clear bottom; both types tissue culture treated) for imaging purposes. Prior to experiments, the cells are cultured over night without G418 sulphate in HAM F-12 medium with glutamax, 100 μg penicillin-streptomycin mixture ml^−1 and 10% FBS. This medium has low autofluorescence enabling fluorescence microscopy of cells straight from the incubator. For certain tests requiring medium of defined composition, particularly with regard to the presence of specific cell growth factors, the HAM's culture medium is replaced prior to imaging with a buffered saline solution (KRW buffer) containing (in mM) 3.6 KCl, 140 NaCl, 2 NaHCO3, 0.5 NaH2PO4, 0.5 MgSO4, 1.5 CaCl2, 10 Hepes, 5 glucose, pH7.4.
Changes in cellular distribution of a transfected probe can be imaged and quantified in an automated fashion. For this purpose cells are cultured to near 80% to 90% confluence in coverglass chambers or plastic 96-well plates, given the relevant treatment and allowed to respond. At the end of the response period, cells are fixed in 4% formaldehyde buffer (Lillies fixative buffer, pH7.0: Bie and Berntsen A/S, Denmark) for 30 minutes to 2 hours, then washed in phosphate buffered saline (PBS, Life Technologies, Denmark). Nuclear DNA is stained with 1 μM Hoechst 33258 (Molecular Probes, Eugene, Oreg., USA) in PBS for 10 minutes at 25° C., then washed twice in PBS. Automated images are collected on a Nikon Diaphot 300 (Nikon, Japan) using a Nikon Plan Fluor 20X/0.5NA objective lens. The basic microscope is fitted with a motorised specimen stage and motorised focus control (Prior Scientific, Fulbourn, Cambridge UK), excitation filter wheel (Sutter Instruments, Novato Calif. USA) and Photometrics PXL series camera with a KAF1400 CCD chip (Photometrics, Tucson, Ariz. USA), each of these items being under the control of an Macintosh 7200/90 computer (Apple Computer, Cupertino, Calif. USA). Automation of stage positioning, focus, excitation filter selection, and image acquisition is performed using macros written in-house, running under IPLab Spectrum for Macintosh (Scanalytics, Fairfax, Va. USA). Fluorescence illumination comes from a 100 W HBO lamp. Images are collected in pairs, the first using a 340/10 nm excitation filter, the second with a 475RDF40 excitation filter (Chroma, Brattleboro, Vt.). Both images are collected via the same dichroic and emission filters, which are optimised for EGFP applications (XF100 filter set, Omega Optical, Brattleboro, Vt.). While the choice of filters for imaging the nuclear stain (Hoechst 33258) is not well matched to that dye's spectral properties, resulting in lower image intensity, it greatly improves the throughput of the procedure by allowing both images to be collected using the same dichroic and emission filter. This eliminates any image registration problems and focus shifts which would result from using two different filter sets, which would require more steps in the acquisition procedure and more extensive image processing to overcome.

Data set [5] concerns the target T3, HSPDE4A4-H506N-EGFP (Homo sapiens, UniProt P27815, H506N).
T3 construct: expressed in transfected cells
Kind of data set: Spot formation in CHO cells transfected with HSPDE4A4-H506N-EGFP. The settings on record: clonal cells, over the concentrations tested. Type of data set: cell-based. The procedure: as §1
Cells are grown in HAM's F12 medium plus 10% FBS plus various concentrations of inhibitors for 23.5 hours. The cells are then fixed with 4% formaldehyde buffer (pH7) for 1 hour, washed with PBS and stained with 1 μM Hoechst 33258 in PBS for 10 minutes at 25° C., then washed twice in PBS. Automated images are collected and analysed for the number of spots per cell as described in Example 2.

The conditions of data set [6]: human, in vivo; cited from earlier work.
The target of data set [7] is T4, HSPDE4A1-EGFP (Homo sapiens, UniProt P27815).
T4 construct: the ca. 1.95 kb coding region of HSPDE4A1 (GenBank Acc.no. U97584) is amplified; expressed in transfected cells
T4 sequence (P27815 1-647 isoform P27815-4): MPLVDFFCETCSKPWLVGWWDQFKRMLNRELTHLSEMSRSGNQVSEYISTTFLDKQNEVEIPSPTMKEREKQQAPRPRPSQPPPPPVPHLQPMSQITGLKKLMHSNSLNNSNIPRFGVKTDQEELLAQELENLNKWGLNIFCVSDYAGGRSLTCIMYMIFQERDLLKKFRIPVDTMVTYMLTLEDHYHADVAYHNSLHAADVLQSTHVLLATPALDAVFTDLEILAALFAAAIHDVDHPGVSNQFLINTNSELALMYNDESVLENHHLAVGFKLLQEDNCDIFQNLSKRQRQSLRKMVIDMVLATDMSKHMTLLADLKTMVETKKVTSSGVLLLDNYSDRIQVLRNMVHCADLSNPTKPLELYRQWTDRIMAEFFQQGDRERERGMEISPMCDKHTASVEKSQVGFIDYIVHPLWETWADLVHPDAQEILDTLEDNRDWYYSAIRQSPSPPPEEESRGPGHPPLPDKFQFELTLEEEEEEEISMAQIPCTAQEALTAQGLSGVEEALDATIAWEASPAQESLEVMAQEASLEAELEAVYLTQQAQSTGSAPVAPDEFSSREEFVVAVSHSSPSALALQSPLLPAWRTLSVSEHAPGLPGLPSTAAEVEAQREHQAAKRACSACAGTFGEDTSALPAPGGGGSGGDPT
Kind of data set: Competitive assay: reversal of Rolipram-induced spot dispersal, HSPDE4A1-EGFP CHO cells. In kind it is cell-based. To be noted: predicted.

For data set [8], the system named is HSPDE4A4-EGFP. Briefly: Formation of small spots in serum-depleted Rolipram-treated HSPDE4A4-EGFP CHO cells. In kind it is cell-based, Homo sapiens. The settings on record: 1 or 2 μM ionomycin, KRW buffer with 2 μM Rolipram. As for the experimental part: Clonal CHO cells stably transfected with the HSPDE4A4-EGFP probe are allowed to adhere to chambered coverglasses in HAM's F12 medium containing 10% FBS and to grow for 4 days without change of medium. […] At the end of this time approximately 95% of the cells contain bright spots when viewed on a fluorescence microscope.
Individual wells are then treated first with 1 or 2 μM ionomycin, and then a short time later with 50 μM forskolin plus 500 μM IBMX. Within 1 minute of treatment with ionomycin, at either 1 or 2 μM, small spots form in the cytoplasm of the cells (FIGS. 32a and 32b). This occurs in nearly all cells, whether they contain large Rolipram-induced spots or not. Large spots are not affected in any way during the formation of the smaller spots. The small spots will spontaneously disappear within 10 to 20 minutes. Application of forskolin plus IBMX clears them within minutes (FIG. 33a). The larger spots also disperse in time with this treatment, but more slowly (FIG. 33b). The formation of small spots will not occur in serum-replete cells, or in starved cells that then have been given 10% serum for more than 45 minutes. […] The time course of transient appearance of the small spots of the HSPDE4A4-EGFP probe is consistent with that of the Ca^2+ transient generally elicited by ionomycin in treated cells.

Where “and” joins values, the source holds several entries; their conditions need not be identical. Identical values can stand only once.

T2 sequence (P27815 whole entry): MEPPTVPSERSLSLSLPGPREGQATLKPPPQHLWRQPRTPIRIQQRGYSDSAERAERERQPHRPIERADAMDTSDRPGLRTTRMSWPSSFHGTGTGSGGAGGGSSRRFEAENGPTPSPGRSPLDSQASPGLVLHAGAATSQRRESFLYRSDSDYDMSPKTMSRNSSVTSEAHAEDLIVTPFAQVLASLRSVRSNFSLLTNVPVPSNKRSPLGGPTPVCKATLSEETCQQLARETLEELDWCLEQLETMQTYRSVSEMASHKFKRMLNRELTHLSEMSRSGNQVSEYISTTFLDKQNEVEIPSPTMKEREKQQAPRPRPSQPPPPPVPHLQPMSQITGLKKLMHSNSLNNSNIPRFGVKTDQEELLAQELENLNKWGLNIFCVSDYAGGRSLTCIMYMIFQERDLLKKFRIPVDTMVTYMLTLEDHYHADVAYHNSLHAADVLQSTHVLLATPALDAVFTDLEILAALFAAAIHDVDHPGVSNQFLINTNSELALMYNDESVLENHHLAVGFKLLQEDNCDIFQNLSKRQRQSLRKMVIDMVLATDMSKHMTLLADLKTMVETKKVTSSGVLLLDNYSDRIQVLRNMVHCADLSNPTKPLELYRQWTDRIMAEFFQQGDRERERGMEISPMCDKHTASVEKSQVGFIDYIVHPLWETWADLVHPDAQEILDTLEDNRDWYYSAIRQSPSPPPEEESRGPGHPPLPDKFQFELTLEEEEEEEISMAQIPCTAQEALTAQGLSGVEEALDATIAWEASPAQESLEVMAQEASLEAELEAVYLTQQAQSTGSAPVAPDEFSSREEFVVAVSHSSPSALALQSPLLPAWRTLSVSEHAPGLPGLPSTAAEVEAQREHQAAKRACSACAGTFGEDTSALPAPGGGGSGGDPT
T1 sequence (P27815 with tags, fused parts or gaps DEL313-320): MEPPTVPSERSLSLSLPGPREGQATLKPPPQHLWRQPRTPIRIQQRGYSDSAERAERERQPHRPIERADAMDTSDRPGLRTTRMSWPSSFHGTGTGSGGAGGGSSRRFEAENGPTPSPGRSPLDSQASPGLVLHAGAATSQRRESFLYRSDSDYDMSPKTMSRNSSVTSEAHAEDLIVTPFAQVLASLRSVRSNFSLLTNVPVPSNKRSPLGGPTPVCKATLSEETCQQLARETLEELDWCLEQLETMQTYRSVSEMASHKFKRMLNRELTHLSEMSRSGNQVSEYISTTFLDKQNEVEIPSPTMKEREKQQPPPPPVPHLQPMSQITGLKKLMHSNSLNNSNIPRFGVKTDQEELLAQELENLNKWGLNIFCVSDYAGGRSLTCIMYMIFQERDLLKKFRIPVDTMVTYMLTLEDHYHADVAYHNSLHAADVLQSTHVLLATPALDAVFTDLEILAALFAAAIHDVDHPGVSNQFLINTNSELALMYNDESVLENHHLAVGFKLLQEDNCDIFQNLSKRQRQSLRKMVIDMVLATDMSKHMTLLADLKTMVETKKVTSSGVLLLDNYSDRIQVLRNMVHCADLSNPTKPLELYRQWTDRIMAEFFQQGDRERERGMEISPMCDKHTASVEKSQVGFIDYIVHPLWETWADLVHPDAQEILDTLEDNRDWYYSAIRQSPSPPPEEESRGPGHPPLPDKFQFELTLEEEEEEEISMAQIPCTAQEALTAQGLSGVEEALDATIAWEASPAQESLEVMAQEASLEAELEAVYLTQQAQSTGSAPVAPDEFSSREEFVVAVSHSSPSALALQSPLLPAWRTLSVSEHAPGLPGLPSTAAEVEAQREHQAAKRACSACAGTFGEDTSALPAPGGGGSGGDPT
T3 sequence (P27815 whole entry H506N): as the sequence (P27815 whole entry) above, with H506N counted along it

For the molecule `COc1ccc([C@]2(C#N)CC[C@@H](C(=O)O)CC2)cc1OC1CCCC1` [Ariflo®], the “Inhibition of PDE4 catalytic activity” value in data set [1] is recorded as “yes”. The “formation of spots, compound alone (in words)” value in data set [2] is listed as “does not by itself produce spots”. Besides, in data set [3] (yes/no), the “Removal of Rolipram-induced PDE4A4-spots” value was “yes”. For the same molecule, the “formation of spots, compound alone (in words)” value in data set [4] (observed up to 24 hours) was “does not by itself produce spots”. Besides, in data set [4] (yes/no), the “Formation of PDE4A4 spots” value is recorded as “no”. Besides, in data set [5], the “spot formation response (in words)” value is recorded as “does not by itself produce spots”. In data set [6], the Clinical effect result was “anti-” and the Emesis result was “no”. For the same molecule, the “Reversal of Rolipram-induced removal of PDE4A1 spots (predicted, not tested)” value in data set [7] was “yes”.
As to `C[C@H](CCC(=O)O)C[C@H](C)C[C@H](C)C(=O)/C=C(\O)[C@H](C)C[C@H](C)C/C=C/[C@@H](C)[C@@H](O)[C@@H](C)[C@@H](O)C[C@@H]1CC[C@@](C)([C@H]2CC[C@@](C)([C@@H](C)O)O2)O1` [ionomycin], the “cells with bright spots remaining” value in data set [3] (2 μM ionomycin 50-55 minutes with 2 μM Rolipram, non-clonal, 10% FBS (control 70%)) was 20-40% and 20 to 40%. Also, the “dispersal of Rolipram-induced spots (in words)” value in data set [3] (FBS-replete cells, 200 nM PMA, 2 μM ionomycin, or 50 μM forskolin plus 1 mM IBMX) is “slowly and in an incomplete manner”. The “time to formation of small spots in the cytoplasm” value in data set [8] was at most 1 min.

(Values after US20030187056A1, “Live cell procedures to identify to identify compounds modulating intracellular distribution of phosphodiesterase( pde) enzymes” (priority 2000, published 2003).)
